# Patent US6878722B2, “Substituted cycloalkyl P1′ hepatitis C virus inhibitors” (Bristol-Myers Squibb Company, priority 2002, dated 2005)
# Where two headings read alike, the source gives them in different places.
# What was measured:
# [1] = biological target: T1, HCV NS3/4A protease complex (BMS strain, genotype 1a) (Hepatitis C virus genotype 1a, UniProt P27958, C1454S); assay: Recombinant HCV NS3/4A protease complex FRET peptide assay, BMS strain; type: biochemical; settings: IC50 range, NS3/4A BMS Strain
# T1 construct: DNA encoding the recombinant HCV NS3/4A protease complex (amino acids 1027 to 1711) for these strains; inferred from the pET21b vector and Ni-NTA purification; made in house; host or cells: Escherichia coli BL21 (DE3), pET21b
# Summary of the method: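 Recombinant NS3/4A complex (aa 1027–1711) with C-terminal three-lysine tail, C1711G and C1454S, expressed in E. coli BL21(DE3) and purified by Ni-NTA then Superdex-S200. Inhibition of the complex from each strain measured in vitro by FRET peptide cleavage.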
# [2] = test system: HCV replicon in Huh7 cells; assay: HCV replicon cell-based assay (FRET); settings: Hepatitis C virus
# Summary of the method: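 Huh7 cells stably carrying a genotype 1b HCV replicon (IRES-neo-EMCV-IRES-NS3-NS5B) were treated with compound for 4 days at 37 °C in 0.5% DMSO final. Lysates containing 10 μM FRET peptide RET S1 were read kinetically at 340/490 nm to give NS3 protease activity, from which EC50 was derived.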
# [3] = Huh-7, HCV replicon, read-out: EC50 range
# T1 sequence (P27958 1658-1714, looked up, stated change not applied): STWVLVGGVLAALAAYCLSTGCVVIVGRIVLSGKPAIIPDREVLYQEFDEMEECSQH
# T1 sequence (P27958 1027-1657, looked up, stated change not applied): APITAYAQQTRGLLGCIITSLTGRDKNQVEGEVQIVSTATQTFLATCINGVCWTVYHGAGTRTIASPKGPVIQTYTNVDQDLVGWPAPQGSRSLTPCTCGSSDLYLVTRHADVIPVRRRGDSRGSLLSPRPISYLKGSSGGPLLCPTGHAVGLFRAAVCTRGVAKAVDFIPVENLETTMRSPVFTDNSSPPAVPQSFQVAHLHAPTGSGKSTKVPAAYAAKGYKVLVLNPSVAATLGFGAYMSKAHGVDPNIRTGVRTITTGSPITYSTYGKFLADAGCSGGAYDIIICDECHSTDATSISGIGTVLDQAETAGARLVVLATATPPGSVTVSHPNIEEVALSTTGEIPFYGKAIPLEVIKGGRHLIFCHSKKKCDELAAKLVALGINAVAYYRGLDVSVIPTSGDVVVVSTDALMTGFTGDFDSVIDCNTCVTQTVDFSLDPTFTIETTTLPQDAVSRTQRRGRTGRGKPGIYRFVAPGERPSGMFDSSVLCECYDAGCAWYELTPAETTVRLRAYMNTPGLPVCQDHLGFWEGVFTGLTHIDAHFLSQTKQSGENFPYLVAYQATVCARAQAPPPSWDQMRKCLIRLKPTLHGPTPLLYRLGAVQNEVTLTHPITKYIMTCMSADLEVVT
Compound,IC50 [1],"EC50 [2, 3]","EC50 ([2]; Huh-7, read-out: EC50 range)"
"C=C[C@@H]1C[C@]1(NC(=O)[C@@H]1C[C@@H](Oc2ccnc3cc(Cl)ccc23)CN1C(=O)[C@@H](NC(=O)OC1CCCC1)C(C)(C)C)C(=O)NS(=O)(=O)C1(C)CC1 [Compound 63, (1-{4-(7-Chloro-quinolin-4-yloxy)-2-[1-(1-methyl-cyclopropanesulfonylaminocarbonyl)-2-vinyl-cyclopropylcarbamoyl]-pyrrolidine-1-carbonyl}-2,2-dimethyl-propyl)-carbamic acid cyclopentyl ester]",< 50 nM,< 50 nM,–
"C=C[C@@H]1C[C@]1(NC(=O)[C@@H]1C[C@@H](Oc2ccnc3cc(Cl)ccc23)CN1C(=O)[C@@H](NC(=O)OC1CCCC1)C(C)(C)C)C(=O)NS(=O)(=O)C1(CCC)CC1 [Compound 64, (1-{4-(7-Chloro-quinolin-4-yloxy)-2-[1-(1-propyl-cyclopropanesulfonylaminocarbonyl)-2-vinyl-cyclopropylcarbamoyl]-pyrrolidine-1-carbonyl}-2,2-dimethyl-propyl)-carbamic acid cyclopentyl ester]",< 50 nM,50 to 500 nM,–
"C=C[C@@H]1C[C@]1(NC(=O)[C@@H]1C[C@@H](Oc2ccnc3cc(Cl)ccc23)CN1C(=O)[C@@H](NC(=O)OC1CCCC1)C(C)(C)C)C(=O)NS(=O)(=O)C1(CCCC)CC1 [Compound 65, {1-[2-[1-(1-Butyl-cyclopropanesulfonylaminocarbonyl)-2-vinyl-cyclopropylcarbamoyl]-4-(7-chloro-quinolin-4-yloxy)-pyrrolidine-1-carbonyl]-2,2-dimethyl-propyl}-carbamic acid cyclopentyl ester]",< 50 nM,50 to 500 nM,–
"C=C[C@@H]1C[C@]1(NC(=O)[C@@H]1C[C@@H](Oc2ccnc3cc(Cl)ccc23)CN1C(=O)[C@@H](NC(=O)OC1CCCC1)C(C)(C)C)C(=O)NS(=O)(=O)C1(CC2CC2)CC1 [Compound 66, (1-{4-(7-Chloro-quinolin-4-yloxy)-2-[1-(1-cyclopropylmethyl-cyclopropanesulfonylaminocarbonyl)-2-vinyl-cyclopropylcarbamoyl]-pyrrolidine-1-carbonyl}-2,2-dimethyl-propyl)-carbamic acid cyclopentyl ester]",< 50 nM,50 to 500 nM,–
"C=CCC1(S(=O)(=O)NC(=O)[C@@]2(NC(=O)[C@@H]3C[C@@H](Oc4ccnc5cc(Cl)ccc45)CN3C(=O)[C@@H](NC(=O)OC3CCCC3)C(C)(C)C)C[C@H]2C=C)CC1 [Compound 67, {1-[2-[1-(1-Allyl-cyclopropanesulfonylaminocarbonyl)-2-vinyl-cyclopropylcarbamoyl]-4-(7-chloro-quinolin-4-yloxy)-pyrrolidine-1-carbonyl]-2,2-dimethyl-propyl}-carbamic acid cyclopentyl ester]",50 to 500 nM,50 to 500 nM,–
"C=C[C@@H]1C[C@]1(NC(=O)[C@@H]1C[C@@H](Oc2cc(C3CC3)nc3cc(OC)ccc23)CN1C(=O)[C@@H](NC(=O)OC(C)(C)C)C(C)(C)C)C(=O)NS(=O)(=O)C1(Cc2ccccc2)CC1 [Compound 68, BOCNH—P3(L-t-BuGly)-P2[(4R)-(2-cyclopropyl-7-methoxyquinoline-4-oxo)-S-proline]-P1(1R,2S Vinyl Acca)-CONHSO2(1-benzylclopropan-1-yl)]",< 50 nM,–,50 to 500 nM
"C=C[C@@H]1C[C@]1(NC(=O)[C@@H]1C[C@@H](Oc2cc(C3CC3)nc3cc(OC)ccc23)CN1C(=O)[C@@H](NC(=O)OC(C)(C)C)C(C)(C)C)C(=O)NS(=O)(=O)C1(CC#CCC)CC1 [Compound 69, (1-{4-(2-Cyclopropyl-7-methoxy-quinolin-4-yloxy)-2-[1-(1-pent-2-ynyl-cyclopropanesulfonylaminocarbonyl)-2-vinyl-cyclopropylcarbamoyl]-pyrrolidine-1-carbonyl}-2,2-dimethyl-propyl)-carbamic acid tert-butyl ester]",< 50 nM,< 50 nM,–
"C=C[C@@H]1C[C@]1(NC(=O)[C@@H]1C[C@@H](Oc2cc(C3CC3)nc3cc(OC)ccc23)CN1C(=O)[C@@H](NC(=O)OC(C)(C)C)C(C)(C)C)C(=O)NS(=O)(=O)C1(CC2CC2)CC1 [Compound 70, (1-{4-(2-Cyclopropyl-7-methoxy-quinolin-4-yloxy)-2-[1-(1-cyclopropylmethyl-cyclopropanesulfonylaminocarbonyl)-2-vinyl-cyclopropylcarbamoyl]-pyrrolidine-1-carbonyl}-2,2-dimethyl-propyl)-carbamic acid tert-butyl ester]",< 50 nM,< 50 nM,–
COc1ccc2c(O[C@@H]3C[C@@H](C(=O)NC4(C(=O)NS(=O)(=O)C5([Si](C)(C)C)CC5)CC4)N(C(=O)[C@@H](NC(=O)OC(C)(C)C)C(C)(C)C)C3)cc(-c3ccccc3)nc2c1 [Compound 71],50 to 500 nM,500 to 5000 nM,–
"COc1ccc2c(O[C@@H]3C[C@@H](C(=O)NC4(C(=O)NS(=O)(=O)C5(C(=O)Nc6ccccc6)CC5)CC4)N(C(=O)[C@@H](NC(=O)OC(C)(C)C)C(C)(C)C)C3)cc(-c3ccccc3)nc2c1 [Compound 72, (1-{4-(7-Methoxy-2-phenyl-quinolin-4-yloxy)-2-[1-(1-phenylcarbamoyl-cyclopropanesulfonylaminocarbonyl)-cyclopropylcarbamoyl]-pyrrolidine-1-carbonyl}-2,2-dimethyl-propyl)-carbamic acid tert-butyl ester]",500 to 5000 nM,5000 to 50000 nM,–
"COc1ccc2c(O[C@@H]3C[C@@H](C(=O)NC4(C(=O)NS(=O)(=O)C5(Cc6ccccc6)CC5)CC4)N(C(=O)[C@@H](NC(=O)OC(C)(C)C)C(C)(C)C)C3)cc(-c3ccccc3)nc2c1 [Compound 74, {1-[2-[1-(1-Benzyl-cyclopropanesulfonylaminocarbonyl)-cyclopropylcarbamoyl]-4-(7-methoxy-2-phenyl-quinolin-4-yloxy)-pyrrolidine-1-carbonyl]-2,2-dimethyl-propyl}-carbamic acid tert-butyl ester]",500 to 5000 nM,5000 to 50000 nM,–
"C=CCC1(S(=O)(=O)NC(=O)C2(NC(=O)[C@@H]3C[C@@H](Oc4cc(-c5ccccc5)nc5cc(OC)ccc45)CN3C(=O)[C@@H](NC(=O)OC(C)(C)C)C(C)(C)C)CC2)CC1 [Compound 75, {1-[2-[1-(1-Allyl-cyclopropanesulfonylaminocarbonyl)-cyclopropylcarbamoyl]-4-(7-methoxy-2-phenyl-quinolin-4-yloxy)-pyrrolidine-1-carbonyl]-2,2-dimethyl-propyl}-carbamic acid tert-butyl ester]",< 50 nM,500 to 5000 nM,–
"COc1ccc2c(O[C@@H]3C[C@@H](C(=O)NC4(C(=O)NS(=O)(=O)C5(C6=CCCCC6)CC5)CC4)N(C(=O)[C@@H](NC(=O)OC(C)(C)C)C(C)(C)C)C3)cc(-c3ccccc3)nc2c1 [Compound 76, {1-[2-[1-(1-Cyclohex-1-enyl-cyclopropanesulfonylaminocarbonyl)-cyclopropylcarbamoyl]-4-(7-methoxy-2-phenyl-quinolin-4-yloxy)-pyrrolidine-1-carbonyl]-2,2-dimethyl-propyl}-carbamic acid tert-butyl ester]",50 to 500 nM,500 to 5000 nM,–
C=C[C@@H]1C[C@]1(NC(=O)[C@@H]1C[C@@H](Oc2cc(-c3nc(C(C)C)cs3)nc3cc(OC)ccc23)CN1C(=O)[C@@H](NC(=O)OC(C)(C)C)C(C)(C)C)C(=O)OS(=O)(=O)C1(CCC)CC1 [Compound 77],< 50 nM,< 50 nM,–
"C=C[C@@H]1C[C@]1(NC(=O)[C@@H]1C[C@@H](Oc2cc(-c3csc(NC(C)C)n3)nc3cc(OC)ccc23)CN1C(=O)[C@@H](NC(=O)OC(C)(C)C)C(C)(C)C)C(=O)NS(=O)(=O)C1(CC2CC2)CC1 [Compound 80, (1-{2-[1-(1-Cyclopropylmethyl-cyclopropanesulfonylaminocarbonyl)-2-vinyl-cyclopropylcarbamoyl]-4-[2-(2-isopropylamino-thiazol-4-yl)-7-methoxy-quinolin-4-yloxy]-pyrrolidine-1-carbonyl}-2,2-dimethyl-propyl)-carbamic acid tert-butyl ester]",< 50 nM,50 to 500 nM,–
C=C[C@@H]1C[C@]1(NC(=O)[C@@H]1C[C@@H](Oc2cc(-c3ccccc3)nc3cc(OC)ccc23)CN1C(=O)[C@@H](NC(=O)OC1(C(=O)OCC)CC1)C(C)(C)C)C(=O)NS(=O)(=O)C1(Cc2ccccc2)CC1 [Compound 81],50 to 500 nM,–,50 to 500 nM
C=C[C@@H]1C[C@]1(NC(=O)[C@@H]1C[C@@H](Oc2cc(-c3ccccc3)nc3cc(OC)ccc23)CN1C(=O)[C@@H](NC(=O)Oc1ccc(C)cc1)C(C)(C)C)C(=O)NS(=O)(=O)C1(Cc2ccccc2)CC1 [Compound 100],50 to 500 nM,500 to 5000 nM,–
C=C[C@@H]1C[C@]1(NC(=O)[C@@H]1C[C@@H](Oc2cc(-c3ccccc3)nc3cc(OC)ccc23)CN1C(=O)[C@@H](NC(=O)Oc1ccccc1)C(C)(C)C)C(=O)NS(=O)(=O)C1(Cc2ccccc2)CC1 [Compound 101],50 to 500 nM,500 to 5000 nM,–
C=C[C@@H]1C[C@]1(NC(=O)[C@@H]1C[C@@H](Oc2cc(-c3ccccc3)nc3cc(OC)ccc23)CN1C(=O)[C@@H](NC(=O)Oc1ccc(F)cc1)C(C)(C)C)C(=O)NS(=O)(=O)C1(Cc2ccccc2)CC1 [Compound 102],50 to 500 nM,500 to 5000 nM,–
C=C[C@@H]1C[C@]1(NC(=O)[C@@H]1C[C@@H](Oc2cc(-c3ccccc3)nc3cc(OC)ccc23)CN1C(=O)[C@@H](NC(=O)Oc1ccc(OC)cc1)C(C)(C)C)C(=O)NS(=O)(=O)C1(Cc2ccccc2)CC1 [Compound 103],50 to 500 nM,50 to 500 nM,–
